Like-named read-outs stand apart in the source and are kept apart here.
Columns and labels:
rat brain membrane FAAH = conditions: cited from earlier work
[1] = In vitro stability in rat liver S9 fraction with NADPH-regenerating system; type: in vitro ADME; conditions: for half-life: male, Wistar, rat, s9, pH 7.4
[2] = In vitro chemical stability at alkaline pH; type: physicochemical; conditions: 1 μM, 300 nM, 100 nM
FAAH = conditions: rats; ref [24]; cited from earlier work
[3] = rat brain membrane FAAH activity, ref [24] and [38]

Compound	pIC50, inhibitory potency toward FAAH in vitro activity (rat brain membrane FAAH; [3])	further results
O=C(NCc1ccccc1)Oc1cccc(-c2ccccc2)c1 [Compound 11]	6.86	
O=C(NC1CCC1)Oc1cccc(-c2ccccc2)c1 [Compound 7]	7.27	
O=C(NCCCCCCN1CCOCC1)Oc1cccc(-c2ccccc2)c1 [Compound 18]	7.40	
CCCCNC(=O)Oc1cccc(-c2ccccc2)c1 [Compound 5]	6.95	half-life [1]: < 2 min
CNC(=O)Oc1cccc(-c2ccccc2)c1 [Compound 3]	4.86	
O=C(NCc1ccc2ccccc2c1)Oc1cccc(-c2ccccc2)c1 [Compound 15]	8.27	
O=C(NC1CCCCC1)Oc1cccc(-c2ccccc2)c1 [Compound 1]	7.20	dependence of pseudo half-lives on concentration at pH 9.0 [2]: No significant difference; ID50, in vivo potency on FAAH inhibition (FAAH): 0.81 mg/kg
CC(C)NC(=O)Oc1cccc(-c2ccccc2)c1 [Compound 4]	6.28	half-life [1]: < 2 min
O=C(NCC1CCCCC1)Oc1cccc(-c2ccccc2)c1 [Compound 9]	7.18	
O=C(NCCc1ccccc1)Oc1cccc(-c2ccccc2)c1 [Compound 12]	6.32	
NC(=O)c1cccc(-c2cccc(OC(=O)NCc3ccc4ccccc4c3)c2)c1 [Compound 19]		pIC50, inhibitory potency toward FAAH in vitro activity (rat brain membrane FAAH): 9.20
CCCCCCNC(=O)Oc1cccc(-c2ccccc2)c1 [Compound 6]	7.24	
O=C(NCCCCCCc1ccccc1)Oc1cccc(-c2ccccc2)c1 [Compound 17]	7.89	
O=C(NC1Cc2ccccc2C1)Oc1cccc(-c2ccccc2)c1 [Compound 13]	6.67	half-life [1]: > 60 min
O=C(NC1CCCC1)Oc1cccc(-c2ccccc2)c1 [Compound 8]	7.47	
O=C(NC12CC3CC(CC(C3)C1)C2)Oc1cccc(-c2ccccc2)c1 [Compound 10]	5.39	dependence of pseudo half-lives on concentration at pH 9.0 [2]: No significant difference; stability to in vitro liver metabolism ([1]; rat liver S9, entire testing period): remained stable for the entire testing period
O=C(NCCCCc1ccccc1)Oc1cccc(-c2ccccc2)c1 [Compound 16]	8.03	dependence of pseudo half-lives on concentration at pH 9.0 [2]: No significant difference; ID50, in vivo potency on FAAH inhibition (FAAH): 0.96 mg/kg

From article PMC3714604 (European journal of medicinal chemistry, 2011)
